Measurements as given in ChEMBL document CHEMBL3045062, “Potent in vitro and in vivo antitubercular activity of certain newly synthesized indophenazine 1,3,5-trisubstituted pyrazoline derivatives bearing benzofuran” (Med Chem Res, 2011).
In brackets after ≈: the same amount, converted by molar mass.

What was measured:
[1] = system: Mycobacterium tuberculosis; assay: Antitubercular activity against Mycobacterium tuberculosis H37Rv after 60 days; assay type: functional
Vero = assay: Cytotoxicity against Chlorocebus aethiops (African green monkey) Vero cells after 72 hr; assay type: cell-based; settings: Chlorocebus sabaeus

Row | SMILES | MIC50 [1] [mg/L] | MIC90 [1] [mg/L] | IC50 (Vero) [µM]
1 | O=C(Cn1c2ccccc2c2nc3ccccc3nc21)N1N=C(c2cc3cc(O)ccc3o2)CC1c1ccccc1O (configuration not stated) | 9.81 (≈ 17.7 µM) | 10.8 (≈ 19.6 µM) | > 227
2 | COc1ccccc1C1CC(c2cc3cc(O)ccc3o2)=NN1C(=O)Cn1c2ccccc2c2nc3ccccc3nc21 (configuration not stated) | 11.8 (≈ 20.8 µM) | 14.2 (≈ 25 µM) | > 226
3 | CN(C)c1ccc(C2CC(c3cc4cc(O)ccc4o3)=NN2C(=O)Cn2c3ccccc3c3nc4ccccc4nc32)cc1 (configuration not stated) | 5.56 (≈ 9.58 µM) | 9.21 (≈ 15.9 µM) | > 216
4 | CC(=O)c1ccccc1C1CC(c2cc3cc(O)ccc3o2)=NN1C(=O)Cn1c2ccccc2c2nc3ccccc3nc21 (configuration not stated) |  |  | > 220
5 | O=C(Cn1c2ccccc2c2nc3ccccc3nc21)N1N=C(c2cc3cc(O)ccc3o2)CC1c1cccc([N+](=O)[O-])c1 (configuration not stated) | 0.62 (≈ 1.06 µM) | 1.24 (≈ 2.13 µM) | > 180
6 | COc1ccc(C2CC(c3cc4cc(O)ccc4o3)=NN2C(=O)Cn2c3ccccc3c3nc4ccccc4nc32)c(O)c1 (configuration not stated) | 4.56 (≈ 7.81 µM) | 8.32 (≈ 14.3 µM) | > 206
7 | O=C(Cn1c2ccccc2c2nc3ccccc3nc21)N1N=C(c2cc3cc(O)ccc3o2)CC1c1ccc(O)cc1 (configuration not stated) |  |  | > 245
8 | O=C(Cn1c2ccccc2c2nc3ccccc3nc21)N1N=C(c2cc3cc(O)ccc3o2)CC1c1ccc(Cl)cc1 (configuration not stated) | 2.45 (≈ 4.28 µM) | 4.2 (≈ 7.34 µM) | > 205
9 | O=C(Cn1c2ccccc2c2nc3ccccc3nc21)N1N=C(c2cc3cc(O)ccc3o2)CC1c1ccccc1Cl (configuration not stated) | 1.75 (≈ 3.06 µM) | 2.56 (≈ 4.48 µM) | > 196
10 | O=C(Cn1c2ccccc2c2nc3ccccc3nc21)N1N=C(c2cc3cc(O)ccc3o2)CC1c1ccccc1[N+](=O)[O-] (configuration not stated) | 0.16 (≈ 0.275 µM) | 0.42 (≈ 0.721 µM) | > 144
11 | COc1ccc(C2CC(c3cc4cc(O)ccc4o3)=NN2C(=O)Cn2c3ccccc3c3nc4ccccc4nc32)cc1 (configuration not stated) | 12.1 (≈ 21.3 µM) | 14.3 (≈ 25.2 µM) | > 226
12 | O=C(Cn1c2ccccc2c2nc3ccccc3nc21)N1N=C(c2cc3cc(O)ccc3o2)CC1c1ccccc1 (configuration not stated) |  |  | > 197
13 | O=C(Cn1c2ccccc2c2nc3ccccc3nc21)N1N=C(c2cc3cc(O)ccc3o2)CC1c1ccco1 (configuration not stated) | 1.1 (≈ 2.09 µM) | 3.12 (≈ 5.91 µM) | > 198
14 | O=C(Cn1c2ccccc2c2nc3ccccc3nc21)N1N=C(c2cc3cc(O)ccc3o2)CC1/C=C/c1ccccc1 (configuration not stated) | 0.98 (≈ 1.74 µM) | 3.67 (≈ 6.51 µM) | > 206
15 | COc1c(N2CCNC(C)C2)c(F)cc2c(=O)c(C(=O)O)cn(C3CC3)c12 (configuration not stated) [GATIFLOXACIN] | 0.12 (≈ 0.32 µM) | 0.5 (≈ 1.33 µM) | > 160
16 | CO[C@H]1/C=C/O[C@@]2(C)Oc3c(C)c(O)c4c(O)c(c(/C=N/N5CCN(C)CC5)c(O)c4c3C2=O)NC(=O)/C(C)=C\C=C\[C@H](C)[C@H](O)[C@@H](C)[C@@H](O)[C@@H](C)[C@H](OC(C)=O)[C@@H]1C [RIFAMPIN] | 0.5 (≈ 0.608 µM) | 2 (≈ 2.43 µM) | > 77.4
